In the NIST ThermoML archive (doi:10.1016/j.jct.2006.09.008):

Experiment: molar heat capacity at constant pressure; mn = molality of the nth substance listed, in mol/kg
Conditions: 350 kPa, Liquid

O=[N+]([O-])[O-].O=[N+]([O-])[O-].[Mg+2] [magnesium nitrate] + O
molar heat capacity at constant pressure [J/K/mol]
Conditions	m1 = 0.0228	m1 = 0.0567	m1 = 0.1086	m1 = 0.2145	m1 = 0.3197	m1 = 0.4749	m1 = 0.6211	m1 = 0.811	m1 = 1.014
278.15 K	75.58	75.4	75.14	74.65	74.24	73.72	73.31	72.9	72.59
283.15 K	75.43	75.26	75.04	74.61	74.25	73.79	73.43	73.07	72.79
288.15 K	75.33	75.17	74.98	74.6	74.28	73.86	73.54	73.22	72.97
293.15 K	75.26	75.12	74.94	74.6	74.31	73.94	73.65	73.35	73.12
298.15 K	75.22	75.09	74.92	74.62	74.35	74.01	73.74	73.47	73.26
303.15 K	75.19	75.07	74.92	74.64	74.39	74.07	73.83	73.58	73.38
308.15 K	75.18	75.07	74.92	74.66	74.43	74.13	73.91	73.67	73.48
313.15 K	75.18	75.07	74.94	74.69	74.47	74.19	73.98	73.75	73.58
318.15 K	75.2	75.09	74.96	74.72	74.52	74.25	74.04	73.83	73.66
323.15 K	75.22	75.12	74.99	74.76	74.56	74.3	74.11	73.9	73.74
328.15 K	75.25	75.15	75.03	74.81	74.61	74.36	74.17	73.97	73.82
333.15 K	75.29	75.19	75.07	74.85	74.66	74.42	74.23	74.03	73.89
